Experimental data taken from patent US12552806B2, “Androgen receptor regulation by small molecule enantiomers” (University of Southern California, priority 2020, dated 2026).
Read-outs that look alike come from different tables or passages of the source.

Columns and labels:
VCaP cells = assay: VCaP viability assay (CellTiter-Glo); assay type: cell-based; conditions: Homo sapiens, VCaP
Experimental: PC3 and VCaP cell lines were obtained from ATCC and cultured as recommended. Generation and culture of PC3 GFP-AR cells were described previously (14). ARE-luciferase cells were generated using Cignal Lenti AR Reporter (Qiagen). Cell lines were authenticated using NIST-approved short tandem repeat DNA profiling and tested negative for mycoplasma. Drug treatments were conducted after overnight culture in phenol red-free media supplemented with charcoal:dextran stripped FBS.
Luminometer Assays. For ARE-luciferase, luciferase substrate was added to lysed cells after 24-h treatment. For viability, cells were lysed with CellTiter-Glo 3D Cell Viability Assay (Promega) after 6 d of treatment. Measurements were performed in 96-well plates (Corning) using a GloMax 96 Microplate Luminometer (Promega).

AR T878A = biological target: T1, AR T878A (Homo sapiens, UniProt P10275, T878A); assay: cell-based; assay type: cell-based
T1 construct: LNCaP cells expressing AR T878A; endogenous in cells; host or cells: LNCaP-luc (LNCaP stably carrying the Cignal Lenti AR Reporter)
T1 sequence (P10275 1-920 T878A): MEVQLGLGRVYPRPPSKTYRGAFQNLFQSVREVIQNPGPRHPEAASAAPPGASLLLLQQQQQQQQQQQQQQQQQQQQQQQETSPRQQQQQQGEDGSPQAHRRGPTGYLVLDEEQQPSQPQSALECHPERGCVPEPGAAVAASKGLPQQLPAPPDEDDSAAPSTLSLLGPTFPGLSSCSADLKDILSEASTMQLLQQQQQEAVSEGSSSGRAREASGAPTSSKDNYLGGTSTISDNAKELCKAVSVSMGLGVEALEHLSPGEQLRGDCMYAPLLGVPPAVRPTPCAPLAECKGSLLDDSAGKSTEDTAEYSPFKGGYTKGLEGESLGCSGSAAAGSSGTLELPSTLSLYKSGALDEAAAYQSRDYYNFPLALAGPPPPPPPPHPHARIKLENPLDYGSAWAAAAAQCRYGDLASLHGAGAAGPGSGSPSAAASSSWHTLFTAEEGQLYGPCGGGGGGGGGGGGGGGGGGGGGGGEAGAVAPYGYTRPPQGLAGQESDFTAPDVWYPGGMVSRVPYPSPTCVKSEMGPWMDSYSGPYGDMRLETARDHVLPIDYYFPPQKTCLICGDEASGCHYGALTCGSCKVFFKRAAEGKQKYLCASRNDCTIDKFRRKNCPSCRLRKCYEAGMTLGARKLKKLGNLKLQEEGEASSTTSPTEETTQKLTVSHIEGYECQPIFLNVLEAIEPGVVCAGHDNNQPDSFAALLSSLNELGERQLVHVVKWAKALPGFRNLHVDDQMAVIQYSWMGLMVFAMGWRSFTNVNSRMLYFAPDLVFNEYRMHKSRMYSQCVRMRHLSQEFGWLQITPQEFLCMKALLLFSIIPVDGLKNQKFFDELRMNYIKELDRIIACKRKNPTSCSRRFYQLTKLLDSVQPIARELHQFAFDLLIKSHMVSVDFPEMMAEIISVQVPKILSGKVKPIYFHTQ
Excerpt: We generated a LNCaP cell line stably expressing luciferase controlled by androgen response elements (ARE-luciferase).
Cell Culture and Treatments. The LNCaP cell line were obtained from ATCC, cultured in RPMI1640 (Corning) supplemented with 10% heat-inactivated GemCell bovine serum (Gemini Bio-Products) and Penicillin-Streptomycin (Gemini Bio-Products). Cell lines stably expressing ARE-luciferase (LNCaP-luc) was generated using Cignal Lenti AR Reporter (Qiagen) and was continuously cultured with 500 ng/mL Puromycin (Gibco) for positive selection. Cells were maintained at 37° C. in a humidified incubator with 5% carbon dioxide. All cell lines were authenticated using NIST approved short tandem repeat (STR) DNA profiling performed by the University of Arizona Genetics Core and routinely tested negative for mycoplasma.
Luciferase assay. LNCaP-luc cells were seeded in clear flat bottom white polystyrene 96-well plates (Corning) at a density of 12,000 cells/well. […] Dose-response curves were fit using the delta method and t-distribution (n=1). Compounds are tested up to 10 μM.

AR = biological target: T2, AR (Rattus norvegicus, UniProt P15207); assay: AR binding, PolarScreen AR Competitor Assay (fluorescence polarization)
T2 construct: purchased Thermo Fisher Scientific
T2 sequence (P15207 646-902 limits assumed): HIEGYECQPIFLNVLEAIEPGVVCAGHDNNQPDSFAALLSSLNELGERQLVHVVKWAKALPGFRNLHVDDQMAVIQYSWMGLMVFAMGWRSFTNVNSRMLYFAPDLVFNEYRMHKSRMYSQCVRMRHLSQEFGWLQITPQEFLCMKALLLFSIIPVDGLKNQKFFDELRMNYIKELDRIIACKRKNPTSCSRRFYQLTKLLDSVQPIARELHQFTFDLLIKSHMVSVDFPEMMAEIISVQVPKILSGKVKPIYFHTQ
Experimental: AR Binding. Ligand binding was analyzed using the PolarScreen AR Competitor Assay Kit, Green, according to the manufacturer's instructions (Thermo Fisher Scientific). Fluorescence polarization was measured after a 4-h incubation using an EnVision 2103 Multilabel Plate Reader (PerkinElmer).

Row | Compound | IC50 (VCaP cells) [µM] | ED50 (AR T878A) | Emax (AR T878A) | binding to AR in vitro, in words (AR) | AR agonism / antagonism in LNCaP ARE-luciferase, in words (AR T878A) | EC50 (AR T878A) [µM] | Emax (AR T878A; LNCaP) [%] | IC50 (AR; printed inside the ED50 cell of Table 2, read-out: IC50 (No binding)) [µM]
1 | C[C@]12O[C@](C)(C[C@H]1NC(=O)c1c[nH]c3ccccc13)[C@H]1C(=O)N(c3ccc(C#N)c(C(F)(F)F)c3)C(=O)[C@H]12 [(R)-1720] | 0.16 |  |  |  |  |  |  | 
2 | CC(=O)N1CCC(C(=O)N[C@@H]2C[C@@]3(C)O[C@]2(C)[C@@H]2C(=O)N(c4ccc(C#N)c(C(F)(F)F)c4)C(=O)[C@@H]23)CC1 [EITM-1717, 1-acetyl-N-((3aR,4R,5R,7R,7aS)-2-(4-cyano-3-(trifluoromethyl)phenyl)-4,7-dimethyl-1,3-dioxooctahydro-1H-4,7-epoxyisoindol-5-yl)piperidine-4-carboxamide] |  | No binding | No binding | did not bind AR |  |  |  | 
3 | Cc1c(N2C(=O)[C@@H]3[C@H](C2=O)[C@@]2(C)C[C@@H](NC(=O)c4cc(C(C)O)[nH]n4)[C@]3(C)O2)ccc(C#N)c1C(F)(F)F (stereo partly drawn) [EITM-1712, N-((3aR,4R,5R,7R,7 aS)-2-(4-cyano-2-methyl-3-(trifluoromethyl)phenyl)-4,7-dimethyl-1,3-dioxooctahydro-1H-4,7-epoxyisoindol-5-yl)-5-(1-hydroxyethyl)-1H-pyrazole-3-carboxamide] |  |  |  |  | pure antagonists | 2.13 | 38 | 
4 | CCS(=O)(=O)Nc1ccc2c(c1)C(=O)N(c1ccc(C#N)c(C(F)(F)F)c1)C2=O [EITM-1708, N-(2-(4-cyano-3-(trifluoromethyl)phenyl)-1,3-dioxoisoindolin-5-yl)ethanesulfonamide] |  | No binding | No binding | did not bind to AR |  |  |  | 
5 | CC(=O)c1cc(C(=O)N[C@@H]2C[C@@]3(C)O[C@]2(C)[C@@H]2C(=O)N(c4ccc(C#N)c(C(F)(F)F)c4)C(=O)[C@@H]23)n[nH]1 [EITM-1703, 5-acetyl-N-((3aR,4R,5R,7R,7aS)-2-(4-cyano-3-(trifluoromethyl)phenyl)-4,7-dimethyl-1,3-dioxooctahydro-1H-4,7-epoxyisoindol-5-yl)-1H-pyrazole-3-carboxamide] |  |  |  |  | robust antagonistic activities without notable agonism | 1.7 | 20 | 
6 | 3-(4-acetylpiperazin-1-yl)-N-((3aR,4R,5R,7R,7aS)-2-(4-cyano-3-(trifluoromethyl)phenyl)-4,7-dimethyl-1,3-dioxooctahydro-1H-4,7-epoxyisoindol-5-yl)propenamide [EITM-1716] |  | No binding (IC50 > 5 μM) | No binding | did not bind AR |  |  |  | > 5
7 | CCS(=O)(=O)N[C@@H]1C[C@@]2(C)O[C@]1(C)[C@@H]1C(=O)N(c3ccc(C#N)c(C(F)(F)F)c3F)C(=O)[C@@H]12 [EITM-1705, N-((3aR,4R,5R,7R,7aS)-2-(4-cyano-2-fluoro-3-(trifluoromethyl)phenyl)-4,7-dimethyl-1,3-dioxooctahydro-1H-4,7-epoxyisoindol-5-yl)ethanesulfonamide] |  | agonist | agonist |  | displayed notable AR agonism |  |  | 
8 | C[C@]12O[C@](C)(C[C@H]1NC(=O)c1n[nH]c3ccccc13)[C@H]1C(=O)N(c3ccc(C#N)c(C(F)(F)F)c3)C(=O)[C@H]12 [EITM-1709, N-((3aR,4R,5R,7R,7 aS)-2-(4-cyano-3-(trifluoromethyl)phenyl)-4,7-dimethyl-1,3-dioxooctahydro-1H-4,7-epoxyisoindol-5-yl)-1H-indazole-3-carboxamide] |  |  |  | appeared to accommodate |  | 0.328 | 1 | 
9 | CC(O)c1cc(C(=O)N[C@@H]2C[C@@]3(C)O[C@]2(C)[C@@H]2C(=O)N(c4ccc(C#N)c(C(F)(F)F)c4)C(=O)[C@@H]23)n[nH]1 (stereo partly drawn) [EITM-1704, N-((3aR,4R,5R,7R,7aS)-2-(4-cyano-3-(trifluoromethyl)phenyl)-4,7-dimethyl-1,3-dioxooctahydro-1H-4,7-epoxyisoindol-5-yl)-5-(1-hydroxyethyl)-1H-pyrazole-3-carboxamide] |  |  |  |  | robust antagonistic activities without notable agonism | 3.7 | 11 | 
10 | C[C@]12O[C@](C)(C[C@H]1NC(=O)c1cc(-c3cccs3)[nH]n1)[C@H]1C(=O)N(c3ccc(C#N)c(C(F)(F)F)c3)C(=O)[C@H]12 [EITM-1710, N-((3aR,4R,5R,7R,7aS)-2-(4-cyano-3-(trifluoromethyl)phenyl)-4,7-dimethyl-1,3-dioxooctahydro-1H-4,7-epoxyisoindol-5-yl)-5-(thiophen-2-yl)-1H-pyrazole-3-carboxamide] |  |  |  | appeared to accommodate |  | 2.43 | 8 | 
11 | C[C@]12O[C@](C)(C[C@H]1NC(=O)c1cc(-c3ccco3)[nH]n1)[C@H]1C(=O)N(c3ccc(C#N)c(C(F)(F)F)c3)C(=O)[C@H]12 [EITM-1711, N-((3aR,4R,5R,7R,7 aS)-2-(4-cyano-3-(trifluoromethyl)phenyl)-4,7-dimethyl-1,3-dioxooctahydro-1H-4,7-epoxyisoindol-5-yl)-5-(furan-2-yl)-1H-pyrazole-3-carboxamide] |  |  |  | appeared to accommodate |  | 0.535 | 1 | 
12 | C[C@]12O[C@](C)(C[C@H]1n1cc(CCO)nn1)[C@H]1C(=O)N(c3ccc(C#N)c(C(F)(F)F)c3)C(=O)[C@H]12 [EITM-1706, 4-((3aR,4R,5R,7R,7 aS)-5-(4-(2-hydroxyethyl)-1H-1,2,3-triazol-1-yl)-4,7-dimethyl-1,3-dioxooctahydro-2H-4,7-epoxyisoindol-2-yl)-2-(trifluoromethyl)benzonitrile] |  | No binding | No binding | did not bind to AR |  |  |  | 
